Data on one compound can be found in patent publication US11827624B2, “Covalent immune recruiter compounds for immune cell recognition and associated uses” (McMaster University, priority 2020, dated 2023).

Assay [1] has as its system human serum anti-DNP IgG (sAb). The assay is described as follows: BLI Fc capture probe assay of CIR 3 covalent recruitment of serum anti-DNP IgG. The assay is classed as binding. As to conditions: 60 nM anti-DNP IgG enriched sample. The procedure: The ability of CIR 3 to recruit the tumour antigen PSMA to anti-DNP antibodies was measured using BLI. Anti-DNP IgG was isolated from human serum IgG (Cedarlane Labs) using affinity chromatography. The enriched anti-DNP antibody sample had 63.19 nM of anti-DNP antibody in 1.92 μM of total IgG. The enriched antibody sample was reacted with 2.5 μM of CIR 3 in PBS overnight at room temperature. A sample of 32.75 μM IgG that was depleted of anti-DNP antibody was also reacted with 2.5 μM of CIR 3 in PBS overnight at room temperature as a negative control. The BLI experiment was conducted using an Octet Red96 (ForteBio) with the temperature set at 25° C., the RPM set at 1000, and the acquisition rate set at 5 Hz. The isolated anti-DNP and CIR 3 reaction samples were suspended in 1×Kinetics Buffer (ForteBio) by doping in a 1:10 dilution of 10×Kinetics Buffer stock. A volume of 200 μL of each solution was loaded into a black flat-bottom 96-well plate (Grenier). Fc capture (ProG) biosensors from ForteBio were placed in 1×Kinetics Buffer for 20 minutes prior to the experiment for wetting. First, the probes were placed in 1×Kinetics Buffer for 4 minutes to establish a baseline. […] Association of PSMA to the probe was measured by submerging the probe in 500 nM PSMA for 10 minutes. Dissociation of PSMA from the probe was measured by submerging the probe in 1×Kinetics Buffer for 10 minutes. […]

The test system of assay [2] is PSMA+LNCaP cells. The assay is described as follows: Flow cytometry ADCP assay with mmAb on LNCaP cells. The assay is classed as cell-based, human. An excerpt: ADCP flow cytometry experiments were run on a BD LSRII Flow Cytometer. The human IgG isotype control used was purchased from Jackson ImmunoResearch (009-000-003). The human IgG1 monoclonal anti-DNP antibody (mAb) was purchased from acrobiosystems (DNP-M2). PSMA expression was confirmed with an anti-PSMA antibody Alexa 647 conjugate (Novus Biologicals, Catalog #FAB4234R). For PSMA competition controls, PMPA was purchased from Sigma (SML1612). Hek-293T (PSMA+/−) cell lines were generously given by Dr. Cyril Barinka (Institute of Biotechnology CAS, Czech Republic). U937 cells were generously given by Dr. John Valliant (McMaster University, Canada). LNCaP cells were generously given by Dr. Karen Mossman (McMaster University, Canada). IFN-γ was purchased from Fischer Scientific (PHC4031). Ultra low IgG FBS was purchased from Fischer Scientific (A3381901). RPMI-1640 was purchased as a powder from Fischer Scientific (31800089) and resuspended. DMEM was purchased as a powder from Fischer Scientific (12800082) and resuspended. […]
For preparation of effector monocytes, 24 hours prior to inducing phagocytosis U937 monocytes were seeded at 500,000 cells/mL and activated with IFN-γ ([…]). After incubation, these cells were then counted and washed twice with serum free assay media (neat RPMI). […] These cells were then counted and washed twice with serum free assay media (neat RPMI). […]
Background: In flow cytometry, cells or beads pass a laser one at a time.

As to `O=C(O)CC[C@H](NC(=O)N[C@@H](CCCCNC(=O)NCCOCCOCCOCCOCCOCCOCCOCCOC(=O)n1cnc(CCNC(=O)CNc2ccc([N+](=O)[O-])cc2[N+](=O)[O-])c1)C(=O)O)C(=O)O` [CIR 3], in assay [1], the “covalent labeling of enriched serum anti-DNP IgG” value is “substantial covalent antibody labeling and resultant PSMA binding to Fc capture probes”. For the same compound, in assay [2], the “ADCP on LNCaP target cells” value is listed as “significant functional advantage compared to non-covalent recruitment across all antibody concentrations tested”.
